{"source": "patent US10597696B2", "about": "“Detection of Niemann-Pick disease comprising detection of lysozyme and cathepsins” (UNIVERSITY OF NOTRE DAME DU LAC, priority 2013, dated 2020)", "key": {"Npc1^nih mice": {"test_system": "Npc1^nih mice", "details": "cited from earlier work"}, "Npc1^pf/pf mice": {"test_system": "Npc1^pf/pf mice", "details": "weekly injections to Npc1^pf/pf mice, previous study; cited from earlier work"}, "[1]": {"test_system": "Npc1^nih Npc1^−/− mouse liver", "assay": "Immunohistochemistry of liver sections after HPβCD", "format": "in vivo", "procedure": "Mice were sacrificed by asphyxiation using CO2. The circulatory bed was washed with PBS (pH 7.4), and subsequently perfused with 10% neutral buffered formalin (˜4% formaldehyde). The organs (brain and liver) were surgically harvested and stored in 4% formaldehyde at room temperature (RT) until transfer to paraffin. Paraffin-embedded tissue sections (3-4 μm) were dewaxed in xylene and alcohol. For Ly-6G and calbindin staining, antigen retrieval was done by pre-incubating deparaffinized samples with 0.05% proteinase K (Dako, Germany) in 50 mM Tris-HCl (pH 7.5) for 8 min at RT. CTSS and lysozyme were retrieved by boiling the sections in acidic condition for 30 min. Sections were incubated with anti-Ly-6G (20 μg/ml), anti-calbindin (1:1000), anti-CTSS (20 μg/ml) or anti-lysozyme (1:20) overnight at 4° C. Reagents were prepared according to the manufacturer's instructions (Vector laboratories). The staining protocol was followed as described previously (19). The secondary antibody for neutrophil staining was biotinylated rabbit anti-rat IgG (mouse absorbed, Vector Laboratories) and for Purkinje neurons was biotinylated horse anti-mouse IgG (Vector Laboratories).\nFor fluorescence microscopy, FITC-conjugated IgG (MP Biomedicals, Solon, Ohio, USA) was the secondary antibody. Sections stained only with secondary antibodies served as controls. Brightfield images were acquired on a Nikon Olympus microscope, using a Nikon digital DS-Fi1-U2 camera controlled by NIS-Elements F3.0 Nikon software (all from Nikon Instruments INC, Tokyo, Japan). Images were visualized with A10 PL 10×/0.25, or a DPIan Apo 40×/1.00 oil-immersion or a DPIan Apo 100×/1.30 oil-immersion objective lens (Nikon). Fluorescence microscopy and digital image collection were performed using an Olympus IX inverted fluorescence microscope and a Photometrix cooled CCD camera (CH350/LCCD) driven by DeltaVision software from Applied Precision (Seattle, Wash., USA). DeltaVision software (softWoRx) was used to deconvolve these images. Images were visualized with 40× oil-immersion objective lens and are single optical sections. ImageJ (National Institute of Health, Bethesda, Md., USA) software was used to process and quantify the fluorescence intensity of CTSS and lysozyme.\nStarting at P21 and once a week thereafter, Npc1^nih and Npc1^nmf164 mice were injected i.p with 20% 2-hydroxypropyl-beta-cyclodextrin (HPβCD, 4000 mg/Kg) prepared in 0.2% DMSO and 0.9% saline. Control mice received 0.2% DMSO in 0.9% saline. Blood was collected either via cheek bleed or terminal heart bleed from mice in EDTA tubes (BD Biosciences, San Jose, Calif., USA). Plasma was separated by centrifugation at 2500 rpm for 15 min and stored at −70° C. until used."}, "[2]": {"test_system": "Npc1^nih Npc1^−/− mouse brain", "assay": "qPCR of cathepsins and inflammatory markers in brain after HPβCD", "format": "in vivo", "text": "In mice, formalin fixed paraffin embedded tissue was sectioned (4-5 μm) and total RNA was isolated using RNeasy FFPE kit (Qiagen, Germantown, Md., USA) which included treatment with DNAse. Frozen human liver and cerebellum from 4 NPC patients and 4 age-, gender- and ethnicity-matched controls were obtained from the NICHD Brain and Tissue Bank for Developmental Disorders (University of Maryland, Baltimore, Md., USA), as approved by the Institutional Review Board (IRB), of the University of Notre Dame, Ind., USA (FWA 00002462). Total RNA was isolated using RNeasy kit (Qiagen, Germantown, Md., USA). Eluted RNA was further digested with RNase free DNaseI and re-purified using RNeasy column. The quality of RNA was checked using Bioanalyzer chip (Agilent Technologies, Santa Clara, Calif., USA) and quantity was determined using Nanodrop 2000 (Thermo Fisher Scientific, Waltham, Mass., USA). Quantitative PCR (qPCR) was performed using Power SYBR Green RNA-to-CT 1-Step Kit and an ABI Prism 7500 Fast real-time PCR system (Applied Biosystems, Grand Island, USA). Reaction was set in 20 μl using 100 nM primers and 5-100 ng total RNA as template. The thermal cycling parameters were as follows: step 1, 48° C. for 30 min; step 2, 95° C. for 10 min; step 3, 95° C. for 15 sec ° C.; step 4, 60° C. for 15 sec. Step 3-4 was repeated for 40 cycles followed by melt curve analysis. Specific amplification was validated by analysis of template titration, melt curves and agarose gel electrophoresis. In both mouse and human tissues, the mRNA levels were normalized to the housekeeping gene, Gapdh (Glyceraldehyde 3-phosphate dehydrogenase). Fold change was calculated by relative standard curve method after correcting PCR efficiency. In mice, the fold change in expression levels of different genes in Npc1^−/− was calculated relative to average levels of expression in Npc1^+/− mice. In human tissues, fold change in transcript expression in NPC liver and cerebellum was expressed relative to average expression in age-matched controls. Starting at P21 and once a week thereafter, Npc1^nih and Npc1^nmf164 mice were injected i.p with 20% 2-hydroxypropyl-beta-cyclodextrin (HPβCD, 4000 mg/Kg) prepared in 0.2% DMSO and 0.9% saline. Control mice received 0.2% DMSO in 0.9% saline. Blood was collected either via cheek bleed or terminal heart bleed from mice in EDTA tubes (BD Biosciences, San Jose, Calif., USA). Plasma was separated by centrifugation at 2500 rpm for 15 min and stored at −70° C. until used."}}, "note": "Entries after “also recorded” stand apart in the source; their conditions may differ.", "data": [{"molecule": "CC(O)COC[C@H]1O[C@@H]2O[C@H]3[C@H](O)[C@@H](O)[C@@H](O[C@H]4[C@H](O)[C@@H](O)[C@@H](O[C@H]5[C@H](O)[C@@H](O)[C@@H](O[C@H]6[C@H](O)[C@@H](O)[C@@H](O[C@H]7[C@H](O)[C@@H](O)[C@@H](O[C@H]8[C@H](O)[C@@H](O)[C@@H](O[C@H]1[C@H](O)[C@H]2O)O[C@@H]8COCC(C)O)O[C@@H]7COCC(C)O)O[C@@H]6COCC(C)O)O[C@@H]5COCC(C)O)O[C@@H]4COCC(C)O)O[C@@H]3COCC(C)O", "note": "(stereo partly drawn) [HPβCD, 2-hydroxypropyl-beta-cyclodextrin]", "values": [{"measurement": "Lgals3 and Ctsd transcripts", "setting": "Npc1^nih mice; Npc1^−/− mice, Cluzeau et al., 2012", "value": "reduced"}, {"measurement": "disease and survival", "setting": "Npc1^nih mice; weekly injections to Npc1^nih, previous studies", "value": "ameliorates the disease and extend the survival; also recorded: reduce disease and extend the survival"}, {"measurement": "disease status", "setting": "Npc1^pf/pf mice", "value": "improvement in disease status"}, {"measurement": "CTSS accumulation in liver", "setting": "[1]; Npc1^−/− mice, anti-CTSS IHC", "value": "dramatically reduced"}, {"measurement": "accumulation of foamy macrophages in liver", "setting": "[1]; Npc1^−/− mice, anti-CTSS IHC", "value": "eliminated accumulation of foamy macrophages; also recorded: eliminated the foamy macrophages and CTSS staining"}, {"measurement": "neutrophil clusters in liver", "setting": "[1]; Npc1^−/− mice, anti-Ly-6G IHC, 50 and 80 days", "value": "reduced neutrophil clusters; also recorded: barely detected"}, {"measurement": "macrophages containing lysozyme in liver", "setting": "[1]; Npc1^−/− mice, anti-lysozyme staining", "value": "largely eliminated"}, {"measurement": "hepatocyte architecture", "setting": "[1]; animals treated with HPβCD, histochemistry", "value": "decreased cytoplasmic staining with slight irregular plasma membrane"}, {"measurement": "Lyz1 expression in brain, fold elevation", "setting": "[2]; HPβCD-treated Npc1^−/−, late stages, untreated ~81-fold", "value": "~28", "unit": "fold"}, {"measurement": "Gfap transcript in brain", "setting": "[2]; HPβCD-treated Npc1^−/−, untreated ~9-fold", "value": "slightly reduced"}, {"measurement": "Cd68 transcript in brain relative to Npc1^+/− mice", "setting": "[2]; HPβCD-treated Npc1^−/−, untreated ~24-fold", "value": "~6", "unit": "fold"}, {"measurement": "Mip-1α transcripts in brain, fold increase", "setting": "[2]; HPβCD-treated Npc1^−/−, untreated ~44-fold", "value": "~27", "unit": "fold"}, {"measurement": "transcripts of neuron specific 24-hydroxylase", "setting": "[2]; NPC mouse brain, qPCR", "value": "no effect"}, {"measurement": "expression of Ctsb in brain", "setting": "[2]; Npc1^−/− mice, qPCR", "value": "returned to normal levels"}, {"measurement": "expression of Ctsd in brain", "setting": "[2]; Npc1^−/− mice, qPCR", "value": "partial reduction"}, {"measurement": "expression of Ctss in brain", "setting": "[2]; Npc1^−/− mice, qPCR", "value": "partial reduction"}]}]}
